Test results: publication PMC9262797, “Spectrum and characterization of bi-allelic variants in MMAB causing cblB-type methylmalonic aciduria” (Human Genetics, 2021)
Blank lines part the entries; values can stand above or below the molecule they belong to.

Columns and labels:
[1] = target: T1, MMAB (recombinant human MMAB, amino acids 56–250) (Homo sapiens, UniProt Q96EY8); experiment: fluorescence titration (MMAB into […] MANT-ATP, ex […] / em […] nm); format: binding
T1 construct: N-terminally truncated residues 56-250, mitochondrial leader omitted; homotrimer, native mass 78 kDa by SEC
T1 sequence (Q96EY8 56-250): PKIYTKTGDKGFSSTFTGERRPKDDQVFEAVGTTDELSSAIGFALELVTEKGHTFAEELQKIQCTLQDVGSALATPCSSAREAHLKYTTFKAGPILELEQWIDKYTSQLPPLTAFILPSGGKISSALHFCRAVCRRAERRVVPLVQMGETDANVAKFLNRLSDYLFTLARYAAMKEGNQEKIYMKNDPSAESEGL

[2] = target: T1, MMAB (recombinant human MMAB, amino acids 56–250); experiment: isothermal titration calorimetry; format: binding
[3] = target: the molecule itself; experiment: SEC; analytical gel filtration, Superose 6 Increase 10/300 GL, Buffer A (100 mM HEPES pH 7.5, 300 mM KCl, 250 µM MgCl2, 5% glycerol); 100 µl of protein at 25 µM; calibrated with 29, 150 and 443 kDa standards

B1: human methylmalonyl-CoA mutase (MMUT) (enzyme, UniProt P22033 33-750, looked up)
chain: LHQQQPLHPEWAALAKKQLKGKNPEDLIWHTPEGISIKPLYSKRDTMDLPEELPGVKPFTRGPYPTMYTFRPWTIRQYAGFSTVEESNKFYKDNIKAGQQGLSVAFDLATHRGYDSDNPRVRGDVGMAGVAIDTVEDTKILFDGIPLEKMSVSMTMNGAVIPVLANFIVTGEEQGVPKEKLTGTIQNDILKEFMVRNTYIFPPEPSMKIIADIFEYTAKHMPKFNSISISGYHMQEAGADAILELAYTLADGLEYSRTGLQAGLTIDEFAPRLSFFWGIGMNFYMEIAKMRAGRRLWAHLIEKMFQPKNSKSLLLRAHCQTSGWSLTEQDPYNNIVRTAIEAMAAVFGGTQSLHTNSFDEALGLPTVKSARIARNTQIIIQEESGIPKVADPWGGSYMMECLTNDVYDAALKLINEIEEMGGMAKAVAEGIPKLRIEECAARRQARIDSGSEVIVGVNKYQLEKEDAVEVLAIDNTSVRNRQIEKLKKIKSSRDQALAERCLAALTECAASGDGNILALAVDASRARCTVGEITDALKKVFGEHKANDRMVSGAYRQEFGESKEITSAIKRVHKFMEREGRRPRLLVAKMGQDGHDRGAKVIATGFADLGFDVDIGPLFQTPREVAQQAVDADVHAVGISTLAAGHKTLVPELIKELNSLGRPDILVMCGGVIPPQDYEFLFEVGVSNVFGPGTRIPKAAVQVLDDIEKCLEKKQQSV
notes: methylmalonyl-CoA mutase (MMUT), human, recombinant; also called apo-MMUT; holo-MMUT; source: recombinant, produced as previously described (Plessl et al. 2017), purified
stoichiometry N [3]: 2

B2: human ATP:cob(I)alamin adenosyltransferase (MMAB), amino acids 56-250 (enzyme, UniProt Q96EY8 56-250, looked up)
chain: T1 sequence (Q96EY8 56-250)
notes: ATP:cob(I)alamin adenosyltransferase (MMAB), human, N-terminally truncated, amino acids 56-250; same residues as in the human MMAB structure of Campanello et al. 2018; also called ATP:cobalamin adenosyltransferase; apo-MMAB; source: recombinant, produced as previously described (Plessl et al. 2017), purified
stoichiometry N [3]: 3

The next lines start with the values.

Kd [1]: 21.1 ± 3.4 µM
Molecule: CNc1ccccc1C(=O)O[C@H]1[C@@H](O)[C@H](n2cnc3c(N)ncnc32)O[C@@H]1CO[P@@](=O)(O)O[P@](=O)(O)OP(=O)(O)O [MANT-ATP, 2',3'-O-(N-Methyl-anthraniloyl)-adenosine-5'-triphosphate]

Kd [2]: 14.2 ± 0.6 µM
Molecule: Nc1ncnc2c1ncn2[C@@H]1O[C@H](COP(=O)(O)OP(=O)(O)OP(=O)(O)O)[C@@H](O)[C@H]1O [ATP]
